Laboratory results: patent publication US20240182525A1, “NOVEL BICYCLIC COMPOUND, OPTICAL ISOMER THEREOF OR PHARMACEUTICALLY ACCEPTABLE SALT THEREOF, USE THEREOF, AND PREPARATION METHOD THEREFOR” (KOREARESEARCH INSTITUTE OF BIOSCIENCE AND BIOTECHNOLOGY, priority 2021, published 2024)

Columns and labels:
MC3T3-E1 cells [1] = assay: Alkaline phosphatase (ALP) staining of MC3T3-E1 cells; type: cell-based, mouse; details: 5, 10, and 20 νM, 7 days, FIG. 15
Description: In order to analyze the effect of the compound of Chemical Formula 1 according to the present invention on ALP activity, the morphology of MC3T3-E1 cells according to the treatment with the compound of Chemical Formula 1 according to the present invention was confirmed by alkaline phosphatase (ALP) staining of the MC3T3-E1 cell line.
In the present Example, the effect of Chemical Formula 1-1 on the activity of alkaline phosphatase (ALP), which is one of the representative markers of osteoblast differentiation, was measured. MC3T3-E1 cells, which are mouse osteoblasts, were inoculated into a 96-well plate at a concentration of 5×10^3 cell/well, and incubated overnight in growth media containing alpha-minimum essential media (alpha-MEM, JBI #008-53) supplemented with 10% fetal bovine serum (FBS, Gibco #16000, USA) and 1× antibiotics (Gibco #15240062, USA). As a negative control, an alpha minimum essential medium containing 10% FBS was used. As positive controls, 100 μg/ml of ALP-activating ascorbic acid and 10 mM of β-glycerophosphate were mixed, and the positive controls were exchanged with media added with 5, 10, and 20 νM of Chemical Formula 1-1 on Day 3, and treated for 7 days. After 7 days, the media were discarded, and the cells were washed with PBS, and fixed with 10% formalin for 1 minute. […]

MC3T3-E1 cells [2] = assay: ALP activity analysis in MC3T3-E1 cell lysate; type: cell-based, mouse; details: 5, 10, and 20 νM, 7 days, absorbance 405 nm, FIG. 16
Procedure: In order to analyze the effect of the compound of Chemical Formula 1 according to the present invention on ALP activity, MC3T3-E1 cells, which are mouse osteoblasts, were inoculated into a 96-well plate at a concentration of 5×10^3 cell/well, and incubated overnight in growth media containing alpha-minimum essential media (alpha-MEM, JBI #008-53) supplemented with 10% fetal bovine serum (FBS, Gibco #16000, USA) and 1× antibiotics (Gibco #15240062, USA). As a negative control, an alpha minimum essential medium containing 10% FBS was used. As a positive control, 100 μg/ml of ALP-activating ascorbic acid and 10 mM of β-glycerophosphate were mixed, and the positive control was exchanged with media added with 5, 10, and 20 νM of Chemical Formula 1-1 (6-J) on Day 3, and treated for 7 days. After 7 days, the media were removed and the cells were washed with PBS, and the cultured MC3T3-E1 cells were lysed with 0.1% TritonX-100 (in PBS) solution and centrifuged to obtain only the supernatant. A predetermined amount of supernatant and ALP were added and reacted for 30 minutes, and then the absorbance was confirmed at 405 nm.

MC3T3-E1 cell line = assay: Cytotoxicity assay in MC3T3-E1 pre-osteoblasts; type: cell-based, mouse; details: concentration range of 50 μM or less, 7 days, FIG. 14
Procedure: In order to measure the cytotoxicity of the compound represented by Chemical Formula 1 (Chemical Formula 1-1), toxicity was measured in the MC3T3-E1 cell line (Korea Cell Line Bank), which is a pre-osteoblast related to bone formation.
Specifically, a cytotoxicity test was performed to determine the in vivo safety of Chemical Formula 1-1 above. MC3T3-E1 cells, which are mouse osteoblasts, were inoculated into a 96-well plate at a concentration of 5×10^3 cell/well, and incubated overnight in growth media containing alpha-minimum essential media (alpha-MEM, JBI #008-53) supplemented with 10% fetal bovine serum (FBS, Gibco #16000, USA) and 1× antibiotics (Gibco #15240062, USA). […] After incubation, the media were removed, 90 μl of the media and 10 μl of WTS solution were added, and after 1 hour, the absorbance was measured at 450 nm using a microplate reader.

[3] = Cytotoxicity assay, B16F10; type: cell-based; details: mouse, B16F10 cells (malignant melanoma); B16F10, 48 hours, maximum concentration 100 μM
Procedure: (§1) To measure the cytotoxicity of the compound represented by Chemical Formula 1 (Chemical Formula 1-1), toxicity was measured in mouse preadipocyte 3T3-L1 cell line, human malignant melanoma A375 cell line, mouse malignant melanoma B16F10 cell line, human oral cancer MDA-MB-435 cell line, mouse breast cancer 4T1 cell line, human breast cancer MCF7 cell line, human brain cancer U87MG cell line, human glioblastoma U373MG cell line, human cervical cancer HeLa cell line, mouse embryonic fibroblast (MEF) cell line, human embryonic kidney HEK293T cell line (Korea Cell Line Bank). First, 1×10^4 cells were divided into 200 μl each in a 96-well plate using Dulbecco's Modified Eagle's Medium (DMEM) supplemented with 10% fetal bovine serum (FBS), […] streptomycin, and 50 U/ml penicillin, while maintaining various cells at 37r in an atmosphere of 5% CO2. The cells were treated with the compound of Chemical Formula 1-1 of the present invention at a maximum concentration of 100 μM and cultured for 48 hours under the same culture conditions. After the incubation, the culture media were removed and the cytotoxicity test results were confirmed (Table 2 and FIG. 3 below).

C57BL/C6 mice = assay: Anti-obesity effect in high calorie diet mouse model; type: in vivo; details: high calorie diet + 15 mg/kg, FIG. 12
Procedure: C57BL/C6 mice were used to test the anti-obesity effect in a mouse model with respect to the compound of Chemical Formula 1 of the present invention, which is an adipogenesis-inhibiting compound. For effective evaluation of the anti-obesity model, the control group (general diet), the control group (high calorie diet), and an anti-obesity control group (high calorie diet+Chemical Formula 1 (15 mg/kg)) were compared and evaluated (FIG. 12). The mice injected with the high-calorie diet rather than the general diet gained 131% in body weight, but the mice treated with the high-calorie diet and Chemical Formula 1 (15 mg/kg) together […] 115% in body weight.

Cytotoxicity assay, A375 = type: cell-based; details: human, A375 cells (malignant melanoma); A375, 48 hours, maximum concentration 100 μM
Procedure: as §1

3T3-L1 cells = assay: Cytotoxicity in 3T3-L1 cells in L-conditional or Wnt3a-containing culture media; type: cell-based, mouse; details: 2.5 to 10 μM, Wnt3a-containing culture media (2.5%), FIG. 3
Procedure: Next, in order to confirm the cytotoxicity in the Chemical Formula 1-1 and wnt3 culture, toxicity in 3T3-L1 cells was measured on the compound of Chemical Formula 1-1 of the present invention at a concentration of 2.5 to 10 μM in L-conditional media or Wnt3a-containing culture media (2.5%).

For `CC(C)CC1NC(=O)C2CCCN2C(=O)C(C(O)C(C)C)NC(=O)CNC(=O)C(C(C)O)NC(=O)C2NC(=O)C(NC(=O)/C=C/c3ccccc3C(O)C(C)O)C(C)OC(=O)C(CC(N)=O)NC(=O)C(NC(=O)C(O)NC1=O)C(O)c1ccc(O)c(c1)Oc1ccc2cc1` (stereo not drawn) [Chemical Formula 1-1], the “alkaline phosphatase staining (ALP) positive cells” value (MC3T3-E1 cells [1]) was “strongly stained in a concentration-dependent manner”, the ALP activity (MC3T3-E1 cells [2]) was “increased” and the cytotoxicity (MC3T3-E1 cell line) was “did not exhibit cytotoxicity”. The IC50 at 48 h [3] was over 100 µM, the abdominal fat weight (C57BL/C6 mice) was “significant decrease” and the liver weight (C57BL/C6 mice) was “significant decrease”. The body weight (C57BL/C6 mice; high-calorie diet alone 131%) was 115%, the IC50 at 48 h (Cytotoxicity assay, A375) was over 100 µM and the cytotoxicity (3T3-L1 cells) was “cytotoxicity was not observed”.
